| melting point [°C] | Structure (SMILES) |
| --- | --- |
| 160 to 161 | COc1cc(NCCOc2ccccc2C)ccc1C(=O)N1CCCC(CC(=O)N2CCN(C)CC2)c2cc(Cl)ccc21 (stereo not drawn) [Example 139, 7-chloro-5-[(4-methyl-1-piperazinyl)carbonylmethyl]-1-[2-methoxy-4-[2-(2-methylphenoxy)ethylamino]benzoyl}-2,3,4,5-tetrahydro-1H-benzazepine] |
| 153 to 154.5 | COc1cc(NCc2ccccc2C)ccc1C(=O)N1CCCC(CC(=O)N2CCN(C)CC2)c2cc(Cl)ccc21 (stereo not drawn) [Example 142, 7-chloro-5-[(4-methyl-1-piperazinyl)carbonylmethyl]-1-[2-methoxy-4-(2-methylbenzylamino)benzoyl]-2,3,4,5-tetrahydro-1H-benzazepine] |
| 230 to 232 | COc1cc(C(=O)N2CCCCc3cc(Cl)ccc32)ccc1NC(=O)N(C)C [Example 146, 7-chloro-1-(3-methoxy-4-dimethylaminocarbonylaminobenzoyl)-2,3,4,5-tetrahydro-1H-benzazepine] |
| 102 to 106 | O=C(O)CC1CCCN(C(=O)c2ccc(NC(=O)COc3ccccc3)cc2)c2ccccc21 (stereo not drawn) [Example 721, 5-carboxymethyl-1-[4-(2-phenoxyacetylamino)benzoyl]-2,3,4,5-tetrahydro-1H-benzazepine] |
| 194 to 195 | Cc1cc(NC(=O)CO)ccc1C(=O)N1CCCCc2cc(Cl)ccc21 [Example 722, 7-chloro-1-[2-methyl-4-(2-hydroxyacetylamino)benzoyl]-2,3,4,5-tetrahydro-1H-benzazepine] |
| 181 to 184 | O=C(Nc1ccc(C(=O)N2CCCCc3ccccc32)c(Cl)c1)OCc1ccncc1 [Example 725, 1-{4-[(4-pyridyl)methoxycarbonylamino]-2-chlorobenzoyl}-2,3,4,5-tetrahydro-1H-benzazepine] |
| 144 to 146 | O=C(Nc1ccc(C(=O)N2CCCCc3ccccc32)c(Cl)c1)OCCOc1ccccc1 [Example 726, 1-[4-(2-phenoxyethoxycarbonylamino)-2-chlorobenzoyl]-2,3,4,5-tetrahydro-1H-benzazepine] |
| 138 to 140 | CN1CCN(c2ccc(C(=O)N3CCCCc4ccccc43)c(Cl)c2)CC1 [Example 728, 1-[4-(4-methyl-1-piperazinyl)-2-chlorobenzoyl]-2,3,4,5-tetrahydro-1H-benzazepine] |
| 191 to 194 | O=C(c1ccc(-c2ccccc2)cc1Cl)N1CCCC(Cc2nnn[nH]2)c2ccccc21 (stereo not drawn) [Example 730, 5-(5-tetrazolyl)methyl-1-(4-phenyl-2-chlorobenzoyl)-2,3,4,5-tetrahydro-1H-benzazepine] |

Reference: patent US6335327B1, “Benzoheterocyclic derivatives” (Otsuka Pharmaceuticals Co., Ltd., priority 1994, dated 2002)
